Test results: US11844782B2, “Aqueous composition comprising dantrolene” (SPEPHARM AG, priority 2015, dated 2023)
Structures can show the parent of a compound that is named as a salt.

Assay: Solubility of dantrolene sodium salt with cyclodextrins at pH 6.0 to 10.0 (FIGS. 1-5, 11, 12)
Type: physicochemical
Details: pH 9; 2-hydroxypropyl-β-cyclodextrin 50 mg/ml, dantrolene sodium salt 1 mg/ml
Procedure: In these experiments four different cyclodextrins were tested in combination with dantrolene sodium salt. The concentration of the cyclodextrin compound was 50 mg/ml and the concentration of dantrolene sodium salt was 1 mg/ml. The pH values were adjusted by using a buffer composed of phosphate 25 mM and Tromethamine 25 mM in water to reach pH 6.0, 7.0, 8.0, 9.0 and 10.0, respectively. The obtained solutions were stored at room temperature and examined over the course of 10 days. The solubility of dantrolene sodium salt was determined after 24 and 48 hours. The solutions were analyzed by visual observation, whilst the content of the dantrolene sodium salt and the degradation profile were determined by HPLC and pH value monitoring.
Dantrolene content and degradation profiles were determined on an Agilent Series 1100 HPLC equipment (Agilent Technologies Inc, Santa Clara, CA, USA) fitted with a quaternary pump, an autosampler, a diode-array detector and a thermostated column compartment. Samples were analyzed on a Kinetex XB-C18 column (75×4.6 mm, 2.6 μm, Phenomenex) with mobile phases consisting of water with 0.1% formic acid (A) and acetonitrile with 0.1% formic acid (B) using a linear gradient from 15% to 45% (B) in 12 minutes. […]

solubility of the dantrolene salt: almost complete solubility
SMILES: O=C1CN(/N=C/c2ccc(-c3ccc([N+](=O)[O-])cc3)o2)C(O)=N1 [dantrolene salt, dantrolene sodium salt]
